Experiments:
[1] = system: Neuro 2a (N2a) cells producing normal prion protein (PrP^C); assay type: cell-based, mouse; settings: 24 hours culture with 0-40 mM HFIP, crystal violet staining, FIG. 1
[2] = target: prion protein (PrP^C) in N2a cells (Mus musculus, UniProt P04925); assay type: cell-based; settings: 6 mM HFIP for 24 hours, protease K 10 μg/ml 37° C. 30 minutes, Western blotting, FIG. 2 #1 to #4
[3] = system: ScNeuro 2a (ScN2a) cells producing abnormal prion protein (PrP^Sc); assay type: cell-based, mouse; settings: 24 hours culture with 0-40 mM HFIP, crystal violet staining, FIG. 1

prion protein (PrP^C) in N2a cells, sequence (P04925 23-230 limits assumed): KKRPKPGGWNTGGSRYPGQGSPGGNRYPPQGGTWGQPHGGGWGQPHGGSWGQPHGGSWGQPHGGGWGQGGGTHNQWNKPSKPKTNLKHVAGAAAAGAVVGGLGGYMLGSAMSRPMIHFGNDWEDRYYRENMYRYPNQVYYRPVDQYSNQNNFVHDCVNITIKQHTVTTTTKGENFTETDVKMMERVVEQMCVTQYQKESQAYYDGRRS

OC(C(F)(F)F)C(F)(F)F [HFIP, 1,1,1,3,3,3-hexafluoro-2-propanol]
upper concentration limit of HFIP at which N2a cells can survive [1]: 25 mM | degradation of protein by protease K [2]: degraded by protease K with or without the addition of HFIP | upper concentration limit at which ScN2a cells can survive [3]: 20 mM

From US20220249394A1 (priority 2019, published 2022)
